# In the supplement of paper PMC10307832:
# Experiments:
# Test in all cases: relative viability (nuclei count vs DMSO), 5 days (fraction); higher = more cells survive
# [1] = compound: CC1=C(CC(=O)O)c2cc(F)ccc2/C1=C\c1ccc([S+](C)[O-])cc1 [Sulindac] + COc1cc2c(Oc3ccc(NC(=O)C4(C(=O)Nc5ccc(F)cc5)CC4)cc3F)ccnc2cc1OCCCN1CCOCC1 [Foretinib] (partner 0.25 µM)
# Method in brief: (§1)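 Values are medians from duplicate plates. Each reflects relative viability, defined as the nuclei count of treated wells over that of vehicle wells. Lung cancer cell lines in 1536-well plates were pin-tool dosed one day after seeding with one drug alone or with a fixed anchor-drug dose plus five library-drug doses (not always all listed) in √10 steps, then fixed, stained and imaged at 4× after 5 days.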
# [2] = compound: CC1=C(CC(=O)O)c2cc(F)ccc2/C1=C\c1ccc([S+](C)[O-])cc1 [Sulindac] + C[C@]1(O)C[C@@H](c2nc(-c3ccc4ccc(-c5ccccc5)nc4c3)c3c(N)nccn32)C1 [Linsitinib] (partner 1 µM)
# Method in brief: as §1
# [3] = compound: O=c1[nH]cc(F)c(=O)[nH]1 [5-Fluorouracil] + C[C@]1(O)C[C@@H](c2nc(-c3ccc4ccc(-c5ccccc5)nc4c3)c3c(N)nccn32)C1 [Linsitinib] (partner 1 µM)
# Method in brief: as §1
# [4] = compound: O=c1[nH]cc(F)c(=O)[nH]1 [5-Fluorouracil] + Cc1cc(Nc2cc(N3CCN(C)CC3)nc(Sc3ccc(NC(=O)C4CC4)cc3)n2)n[nH]1 [Tozasertib] (partner 0.1 µM)
# Method in brief: as §1
Cell Line,relative viability ([1]; first compound 0.08 µM),relative viability ([1]; first compound 0.8 µM),relative viability ([1]; first compound 2.53 µM),relative viability ([1]; first compound 8 µM),relative viability ([2]; first compound 0.08 µM),relative viability ([2]; first compound 0.253 µM),relative viability ([2]; first compound 0.8 µM),relative viability ([2]; first compound 2.53 µM),relative viability ([2]; first compound 8 µM),relative viability ([3]; first compound 0.02 µM),relative viability ([3]; first compound 0.2 µM),relative viability ([3]; first compound 0.6325 µM),relative viability ([3]; first compound 2 µM),relative viability ([4]; first compound 0.02 µM),relative viability ([4]; first compound 0.2 µM),relative viability ([4]; first compound 0.6325 µM),relative viability ([4]; first compound 2 µM),relative viability ([1]; first compound 0.253 µM)
NCI-H23,0.879,0.782,0.607,1.03,0.584,0.6,0.32,0.678,0.758,0.488,0.631,0.444,0.271,0.544,0.327,0.318,0.189,
NCI-H322M,0.992,0.882,0.954,1,1.01,1.01,0.747,0.951,1.05,0.898,0.747,0.652,0.64,0.511,0.495,0.391,0.323,0.996
NCI-H358,0.85,0.572,0.621,0.826,0.777,0.881,0.643,0.661,1.09,0.704,0.883,0.867,0.483,0.132,0.104,0.0975,0.103,0.763
NCI-H522,,,,,,,,,,,,,,0.515,0.556,0.586,0.48,
NCI-H1299,1.13,1.06,1.02,1.15,1.14,1.18,0.898,1.02,1.01,1.09,0.982,0.825,0.59,,,,,1.09
NCI-H1563,0.98,0.912,0.89,0.99,1.13,1.15,1.03,1.15,1.31,1.08,1.25,1.12,0.994,,,,,1.02
NCI-H1623,0.875,0.637,0.873,0.923,,,,,,,,,,0.38,0.314,0.264,0.248,0.779
NCI-H1648,,,,,,,,,,,,,,0.442,0.457,0.372,0.207,
NCI-H1650,1.05,,1.24,1.32,,,,,,,,,,0.408,0.401,0.317,0.211,1.21
NCI-H1703,0.276,0.355,0.382,0.377,0.673,0.873,0.561,0.761,1.15,0.665,1.16,0.856,0.484,,,,,0.389
NCI-H1792,,,,,0.557,0.561,,0.455,0.558,0.554,0.484,0.14,0.0794,,,,,
NCI-H2170,1.1,1.05,0.978,1.01,,,,,,,,,,0.796,0.671,0.436,0.32,0.547
NCI-H2342,0.86,1.02,0.948,1.07,,,,,,,,,,0.484,0.471,0.626,0.443,0.952
SW 900,,,0.948,1.11,,,,,,,,,,0.595,0.644,0.602,0.421,0.645
